A word on the IC50: it is the concentration at which inhibition is half-maximal. Read a low IC50 as higher potency.

Each structure is given as a SMILES string.

The text below walks through data of patent publication US6410541B2, “Compounds useful for inhibition of farnesyl protein transferase” (Schering Corporation, priority 1997, dated 2002).

The first test concerns the target farnesyl protein transferase (UniProt Q02293+Q04631). The test is described as follows: FPT IC50 (inhibition of farnesyl protein transferase, in vitro enzyme assay). As to conditions: at 140 nM. In kind it is biochemical. As to the method:
(§1) FPT IC50 (inhibition of farnesyl protein transferase, in vitro enzyme assay) and COS Cell IC50 (Cell-Based Assay) were determined following the assay procedures described in WO 95/10516, published Apr. 20. 1995. GGFT IC50 (inhibition of geranylgeranyl protein transferase, in vitro enzyme assay), Cell Mat Assay, and anti-tumor activity (in vivo anti-tumor studies) could be determined by the assay procedures described in WO 95/10516. The disclosure of WO 95/10516 is incorporated herein by reference thereto.
In Table 10, “nM” represents nanomolar.
For the compound `COc1ccc2c(c1)CC(CC(=O)N1CCC([C@H]3c4ncc(Br)cc4CCc4cc(Cl)cc(Br)c43)CC1)C2=O` (stereo partly shown) [Compound 17.0B], the “FPT inhibition at 140 nM (printed in FPT IC50 column)” value is 32% at 140.

The test is the same for the next values; noted with them: in vitro enzyme assay per WO 95/10516.
Compound `CS(=O)(=O)NC1CCC(C(=O)N2CCC(C3c4ncc(Br)cc4CCc4cc(Cl)cc(Br)c43)CC2)CC1` (stereo not shown) [Compound 40.0] gave an IC50 of 2.9 nM. This lies in the single-digit nanomolar range.
The compound `CC(=O)NN=C1CCC(CC(=O)N2CCC([C@H]3c4ncc(Br)cc4CCc4cc(Cl)cc(Br)c43)CC2)CC1` (stereo partly shown) [Compound 30.0] gave a 50% inhibitory concentration (IC50) of 4.3 nM.
Same read-out and setting: under `O=C1CCN(CC(=O)N2CCC([C@H]3c4ncc(Br)cc4CCc4cc(Cl)cc(Br)c43)CC2)CC1` [Compound 14.0] stands 2.6 nM; under `O=C(CN1CCC2(CC1)SCCS2)N1CCC([C@H]2c3ncc(Br)cc3CCc3cc(Cl)cc(Br)c32)CC1` [Compound 28.0], 35 nM.
Take `CC(C)(C)OC(=O)NC1CCCC(C(=O)N2CCC(C3c4ncc(Br)cc4CCc4cc(Cl)cc(Br)c43)CC2)C1` (stereo not shown) [Compound 43.0]: the concentration for half-maximal inhibition (IC50) is 150 nM.
In turn, `NC(=O)NC1CCCC(C(=O)N2CCC(C3c4ncc(Br)cc4CCc4cc(Cl)cc(Br)c43)CC2)C1` (stereo not shown) [Compound 45.0] registered a 50% inhibitory concentration (IC50) of 17.6 nM. This IC50 is about 8.5-fold lower than that of the compound before.
In the case of `O=C(C1CCC(O)CC1)N1CCC(C2c3ncc(Br)cc3CCc3cc(Cl)cc(Br)c32)CC1` (stereo not shown) [Compound 68.0], the IC50 is greater than 160 nM.
`NC(=O)NC1CCC(C(=O)N2CCC(C3c4ncc(Br)cc4CCc4cc(Cl)cc(Br)c43)CC2)CC1` (stereo not shown) [Compound 38.0] yielded an IC50 of 6.2 nM. This counts as single-digit nanomolar.
Still for that read-out and setting: under `O=C1CCCCC1CCC(=O)N1CCC([C@H]2c3ncc(Br)cc3CCc3cc(Cl)cc(Br)c32)CC1` (stereo partly shown) [Compound 19.0] stands 10.7 nM.
Regarding `O=C(C=C1CCC2(CC1)OCCO2)N1CCC([C@H]2c3ncc(Br)cc3CCc3cc(Cl)cc(Br)c32)CC1` [Compound 21.0], half-maximal inhibition (IC50) required 10.7 nM. In other words, the double-digit nanomolar range.
`O=C(CC1CCC(=NO)CC1)N1CCC([C@H]2c3ncc(Br)cc3CCc3cc(Cl)cc(Br)c32)CC1` (stereo partly shown) [Compound 23.0] returned an IC50 of 2.7 nM.
Consider `CON=C1CCN(CC(=O)N2CCC([C@H]3c4ncc(Br)cc4CCc4cc(Cl)cc(Br)c43)CC2)CC1` [Compound 27.0], for which the IC50 stood at 6.7 nM. This IC50 lies about 2.5-fold higher than the previous one.
Still for that read-out and setting: as for `O=C(C1CCC(O)CC1)N1CCC(C2c3ncc(Br)cc3CCc3cc(Cl)cc(Br)c32)CC1` (stereo not shown) [Compound 70.0], the figure is 11 nM; as for `CC(C)(C)[Si](C)(C)OCCON=C1CCC(CC(=O)N2CCC([C@H]3c4ncc(Br)cc4CCc4cc(Cl)cc(Br)c43)CC2)CC1` (stereo partly shown) [Compound 32.0], 97 nM; as for `O=C(CC1CCC2(CC1)OCCO2)N1CCC([C@H]2c3ncc(Br)cc3CCc3cc(Cl)cc(Br)c32)CC1` [Compound 24.0], 4.7 nM.
Turning to `CCOC(=O)C(=O)NC1CCC(C(=O)N2CCC(C3c4ncc(Br)cc4CCc4cc(Cl)cc(Br)c43)CC2)CC1` (stereo not shown) [Compound 39.0], 23 nM corresponded to half-maximal inhibition (IC50).
On the same count and under the same terms, as for `O=C1CCCCC1CC(=O)N1CCC([C@H]2c3ncc(Br)cc3CCc3cc(Cl)cc(Br)c32)CC1` (stereo partly shown) [Compound 18.0], the figure is 5 nM; as for `CC(C)(C)OC(=O)NC1CCC(C(=O)N2CCC(C3c4ncc(Br)cc4CCc4cc(Cl)cc(Br)c43)CC2)CC1` (stereo not shown) [Compound 36.0], 67 nM.
As to `CC(=O)OC1CCC(C(=O)N2CCC(C3c4ncc(Br)cc4CCc4cc(Cl)cc(Br)c43)CC2)CC1` (stereo not shown) [Compound 69.0], half-maximal inhibition (IC50) was put at 7.8 nM.
In turn, `O=C1CCC(CC(=O)N2CCC([C@H]3c4ncc(Br)cc4CCc4cc(Cl)cc(Br)c43)CC2)CC1` [Compound 13.0] yielded an IC50 of 2.2 nM.
On to `NC1CCCC(C(=O)N2CCC(C3c4ncc(Br)cc4CCc4cc(Cl)cc(Br)c43)CC2)C1` (stereo not shown) [Compound 44.0], for which the half-maximal inhibitory concentration (IC50) is 13.9 nM. This IC50 is about 6.3-fold higher than that of the compound before.
On to `O=C1CCC(C(=O)N2CCC([C@H]3c4ncc(Br)cc4CCc4cc(Cl)cc(Br)c43)CC2)CC1` [Compound 33.0], for which the concentration for half-maximal inhibition (IC50) is 5.1 nM.
For the compound `NC(=O)C(=O)NC1CCCC(C(=O)N2CCC(C3c4ncc(Br)cc4CCc4cc(Cl)cc(Br)c43)CC2)C1` (stereo not shown) [Compound 49.1], 15.6 nM corresponded to half-maximal inhibition (IC50).
As for `O=C(O)CON=C1CCC(CC(=O)N2CCC([C@H]3c4ncc(Br)cc4CCc4cc(Cl)cc(Br)c43)CC2)CC1` (stereo partly shown) [Compound 31.0], it took 1.9 nM to reach half-maximal inhibition (IC50).
In turn, `O=C(CN1CCC(=NO)CC1)N1CCC([C@H]2c3ncc(Br)cc3CCc3cc(Cl)cc(Br)c32)CC1` [Compound 26.0] gave an IC50 of 6 nM.
The same measure, in the same setting: under `O=C(C1CCC2(CC1)OCCO2)N1CCC([C@H]2c3ncc(Br)cc3CCc3cc(Cl)cc(Br)c32)CC1` [Compound 34.0] stands 10.7 nM; under `N[C@H]1CC[C@@H](C(=O)N2CCC([C@H]3c4ncc(Br)cc4CCc4cc(Cl)cc(Br)c43)CC2)CC1` [Compound 37.0], 14 nM; under `NC(=O)NN=C1CCC(CC(=O)N2CCC([C@H]3c4ncc(Br)cc4CCc4cc(Cl)cc(Br)c43)CC2)CC1` (stereo partly shown) [Compound 29.0], 3 nM.
The same measure, in the same setting: under `C[C@]1(CCC(=O)N2CCC([C@H]3c4ncc(Br)cc4CCc4cc(Cl)cc(Br)c43)CC2)CCCCC1=O` [Compound 20.0] stands 7 nM; under `CON=C1CCC(C(=O)N2CCC([C@H]3c4ncc(Br)cc4CCc4cc(Cl)cc(Br)c43)CC2)CC1` (stereo partly shown) [Compound 35.0], 8.2 nM.
On to `CCOC(=O)C(=O)NC1CCCC(C(=O)N2CCC(C3c4ncc(Br)cc4CCc4cc(Cl)cc(Br)c43)CC2)C1` (stereo not shown) [Compound 46.0], for which the IC50 turned out to be 34 nM.
Compound `CON=C1CCC(CC(=O)N2CCC([C@H]3c4ncc(Br)cc4CCc4cc(Cl)cc(Br)c43)CC2)CC1` (stereo partly shown) [Compound 25.0] had an IC50 of 4.4 nM. This IC50 is about 7.7-fold lower than that of the compound before.

The test system of another test is COS Cell. The test is described as follows: COS Cell IC50 (Cell-Based Assay). The settings on record: COS cells, cell-based assay per WO 95/10516. As to the method: as §1
On to `CC(=O)OC1CCC(C(=O)N2CCC(C3c4ncc(Br)cc4CCc4cc(Cl)cc(Br)c43)CC2)CC1` (stereo not shown) [Compound 69.0], for which the IC50 worked out at 30 nM.
